Measurements as given in publication PMC5218480 (PLoS ONE, 2017).

System: MV-4-11 cells
Assay: Gene expression microarray analysis (Affymetrix PrimeView) and GSEA
Assay type: cell-based, human
Design: RFU PODN (11730768_x_at) / Fold change /veh PODN (11730768_x_at) / RFU LINC00158 (11744669_a_at) / Fold change /veh LINC00158 (11744669_a_at) / RFU DUSP10 (11751237_a_at) / Fold change /veh DUSP10 (11751237_a_at) / RFU ID3 (11757404_x_at) / Fold change /veh ID3 (11757404_x_at) / RFU PLEKHG5 (11737974_s_at) / Fold change /veh PLEKHG5 (11737974_s_at) / RFU LRRC4B (11730491_at) / Fold change /veh LRRC4B (11730491_at) / RFU GIMAP4 (11747438_a_at) / Fold change /veh GIMAP4 (11747438_a_at) / RFU KRT8 (11758183_x_at) / Fold change /veh KRT8 (11758183_x_at) / RFU CNN1 (11734310_a_at) / Fold change /veh CNN1 (11734310_a_at) / RFU VPS37D (11726825_at) / Fold change /veh VPS37D (11726825_at) / RFU C10orf10 (11716522_x_at) / Fold change /veh C10orf10 (11716522_x_at) / RFU KIR2DL2 /// KIR2DL4 /// KIR2DL5A /// KIR2DL5B /// KIR2DS1 /// KIR2DS2 /// KIR2DS3 /// KIR2DS4 /// KIR3DL3 /// KIR3DL3 /// KIR3DS1 (11738374_at) / Fold change /veh KIR2DL2 /// KIR2DL4 /// KIR2DL5A /// KIR2DL5B /// KIR2DS1 /// KIR2DS2 /// KIR2DS3 /// KIR2DS4 /// KIR3DL3 /// KIR3DL3 /// KIR3DS1 (11738374_at) / RFU C1QL1 (11718748_at) / Fold change /veh C1QL1 (11718748_at) / RFU TMPRSS4 (11747572_a_at) / Fold change /veh TMPRSS4 (11747572_a_at) / RFU HAMP (11756126_x_at) / Fold change /veh HAMP (11756126_x_at) / RFU RNFT2 (11725882_a_at) / Fold change /veh RNFT2 (11725882_a_at) / RFU NR4A2 (11747474_a_at) / Fold change /veh NR4A2 (11747474_a_at) / RFU ABCC12 (11746883_a_at) / Fold change /veh ABCC12 (11746883_a_at) / RFU TMEM136 (11760407_x_at) / Fold change /veh TMEM136 (11760407_x_at) / RFU CLDN22 /// WWC2 (11732394_at) / Fold change /veh CLDN22 /// WWC2 (11732394_at) / RFU HLA-DPB1 (11760878_x_at) / Fold change /veh HLA-DPB1 (11760878_x_at) / RFU SPINT1 (11716480_a_at) / Fold change /veh SPINT1 (11716480_a_at) / RFU GAP43 (11754022_s_at) / Fold change /veh GAP43 (11754022_s_at) / RFU A4GNT (11735810_at) / Fold change /veh A4GNT (11735810_at) / RFU PRB3 (11715151_x_at) / Fold change /veh PRB3 (11715151_x_at) / RFU TUBB4B (11761932_at) / Fold change /veh TUBB4B (11761932_at) / RFU CAPN14 (11732068_a_at) / Fold change /veh CAPN14 (11732068_a_at) / RFU TMCC2 (11721928_a_at) / Fold change /veh TMCC2 (11721928_a_at) / RFU IRGQ (11745062_a_at) / Fold change /veh IRGQ (11745062_a_at) / RFU FAM174B (11720279_a_at) / Fold change /veh FAM174B (11720279_a_at) / RFU TMPRSS4 (11748680_a_at) / Fold change /veh TMPRSS4 (11748680_a_at) / RFU FAM212B (11763350_a_at) / Fold change /veh FAM212B (11763350_a_at) / RFU PLEKHG5 (11743358_a_at) / Fold change /veh PLEKHG5 (11743358_a_at) / RFU ZSCAN30 (11745921_a_at) / Fold change /veh ZSCAN30 (11745921_a_at) / RFU CMKLR1 (11741424_a_at) / Fold change /veh CMKLR1 (11741424_a_at) / RFU LOC101060620 /// MAPK8IP1 (11723275_at) / Fold change /veh LOC101060620 /// MAPK8IP1 (11723275_at) / RFU SPTSSB (11747773_x_at) / Fold change /veh SPTSSB (11747773_x_at) / RFU PRSS12 (11739890_at) / Fold change /veh PRSS12 (11739890_at) / RFU BIN1 (11741810_x_at) / Fold change /veh BIN1 (11741810_x_at) / RFU WNT11 (11732464_a_at) / Fold change /veh WNT11 (11732464_a_at) / RFU C10orf10 (11716521_a_at) / Fold change /veh C10orf10 (11716521_a_at) / RFU C5orf56 (11738089_at) / Fold change /veh C5orf56 (11738089_at) / RFU CYB561 (11721691_x_at) / Fold change /veh CYB561 (11721691_x_at) / RFU ANKRD19P (11752326_a_at) / Fold change /veh ANKRD19P (11752326_a_at) / RFU OR2T12 /// OR2T33 /// OR2T8 (11738714_s_at) / Fold change /veh OR2T12 /// OR2T33 /// OR2T8 (11738714_s_at) / RFU VCAN (11748164_a_at) / Fold change /veh VCAN (11748164_a_at) / RFU JSRP1 (11732532_at) / Fold change /veh JSRP1 (11732532_at) / RFU KRTAP10-11 (11738290_x_at) / Fold change /veh KRTAP10-11 (11738290_x_at) / RFU MYO3A (11730013_a_at) / Fold change /veh MYO3A (11730013_a_at) / RFU EBF3 (11725865_a_at) / Fold change /veh EBF3 (11725865_a_at) / RFU CAMK2N1 (11719241_x_at) / Fold change /veh CAMK2N1 (11719241_x_at) / RFU C5orf56 (11738088_a_at) / Fold change /veh C5orf56 (11738088_a_at) / RFU OLFML3 (11715873_a_at) / Fold change /veh OLFML3 (11715873_a_at) / RFU LOC100653217 /// NTM (11731650_a_at) / Fold change /veh LOC100653217 /// NTM (11731650_a_at) / RFU MAPK11 (11762145_a_at) / Fold change /veh MAPK11 (11762145_a_at) / RFU FIZ1 (11724087_x_at) / Fold change /veh FIZ1 (11724087_x_at) / RFU OASL (11726364_x_at) / Fold change /veh OASL (11726364_x_at) / RFU SOX15 (11748057_x_at) / Fold change /veh SOX15 (11748057_x_at) / RFU CD79A (11719716_a_at) / Fold change /veh CD79A (11719716_a_at) / RFU HIST1H1D (11736915_at) / Fold change /veh HIST1H1D (11736915_at) / RFU CASKIN2 (11723855_a_at) / Fold change /veh CASKIN2 (11723855_a_at) / RFU LOC730098 (11760151_x_at) / Fold change /veh LOC730098 (11760151_x_at) / RFU OR4N2 (11742367_at) / Fold change /veh OR4N2 (11742367_at) / RFU PRRT2 (11749266_a_at) / Fold change /veh PRRT2 (11749266_a_at) / RFU SNX32 (11753110_a_at) / Fold change /veh SNX32 (11753110_a_at) / RFU CDHR5 (11726645_a_at) / Fold change /veh CDHR5 (11726645_a_at) / RFU RCAN1 (11760418_a_at) / Fold change /veh RCAN1 (11760418_a_at) / RFU FAM167A (11723789_a_at) / Fold change /veh FAM167A (11723789_a_at) / RFU FAM26E (11764081_at) / Fold change /veh FAM26E (11764081_at) / RFU ISYNA1 (11749810_s_at) / Fold change /veh ISYNA1 (11749810_s_at) / RFU ACY1 (11761880_at) / Fold change /veh ACY1 (11761880_at) / RFU 11764098_at / Fold change /veh 11764098_at / RFU SAMD14 (11745864_x_at) / Fold change /veh SAMD14 (11745864_x_at) / RFU NPB (11741838_a_at) / Fold change /veh NPB (11741838_a_at) / RFU TMPRSS6 (11731388_a_at) / Fold change /veh TMPRSS6 (11731388_a_at) / RFU KRTAP10-2 (11738614_at) / Fold change /veh KRTAP10-2 (11738614_at) / RFU ARHGAP8 /// PRR5-ARHGAP8 (11727945_x_at) / Fold change /veh ARHGAP8 /// PRR5-ARHGAP8 (11727945_x_at) / RFU KRTAP5-7 /// NADSYN1 (11734609_at) / Fold change /veh KRTAP5-7 /// NADSYN1 (11734609_at) / RFU RASL12 (11751679_a_at) / Fold change /veh RASL12 (11751679_a_at) / RFU CDKN2B (11736163_a_at) / Fold change /veh CDKN2B (11736163_a_at) / RFU PRF1 (11729649_at) / Fold change /veh PRF1 (11729649_at) / RFU, ZNF638 /// ZNF638-IT1 / Fold change vs veh, ZNF638 /// ZNF638-IT1 / RFU, PANK3 / Fold change vs veh, PANK3 / RFU, SH3YL1 / Fold change vs veh, SH3YL1 / RFU, ZEB2 / Fold change vs veh, ZEB2 / RFU, NRIP1 / Fold change vs veh, NRIP1 / RFU, PTTG1IP / Fold change vs veh, PTTG1IP / RFU, CAPN2 / Fold change vs veh, CAPN2 / RFU, MED14 / Fold change vs veh, MED14 / RFU, SNORA58 / Fold change vs veh, SNORA58 / RFU, C1orf63 / Fold change vs veh, C1orf63 / RFU, LRRFIP1 / Fold change vs veh, LRRFIP1 / RFU, NDUFAF7 / Fold change vs veh, NDUFAF7 / RFU, SLC12A2 / Fold change vs veh, SLC12A2 / RFU, IBTK / Fold change vs veh, IBTK / RFU, ESF1 / Fold change vs veh, ESF1 / Fold change vs veh, TMEM50B / RFU, TAOK1 / Fold change vs veh, TAOK1 / RFU, ACBD3 / Fold change vs veh, ACBD3 / RFU, TMA16 / Fold change vs veh, TMA16 / RFU, RWDD3 / Fold change vs veh, RWDD3 / RFU, BCAT1 / Fold change vs veh, BCAT1 / RFU, EDEM3 / Fold change vs veh, EDEM3 / RFU, TMEM33 / Fold change vs veh, TMEM33 / RFU, WDR75 / Fold change vs veh, WDR75 / RFU, AHCTF1 / Fold change vs veh, AHCTF1 / RFU, TFRC / Fold change vs veh, TFRC / RFU, ZDHHC17 / Fold change vs veh, ZDHHC17 / RFU, NOM1 / Fold change vs veh, NOM1 / RFU, ARL8B / Fold change vs veh, ARL8B / RFU, ZBTB11 / Fold change vs veh, ZBTB11 / RFU, TAMM41 / Fold change vs veh, TAMM41 / RFU, KIAA1704 /// LOC100996395 / Fold change vs veh, KIAA1704 /// LOC100996395 / RFU, ING1 / Fold change vs veh, ING1 / RFU, TRMT61B / Fold change vs veh, TRMT61B / RFU, FUBP3 / Fold change vs veh, FUBP3 / RFU, TP53 / Fold change vs veh, TP53 / RFU, TNKS2 / Fold change vs veh, TNKS2 / RFU, ZFP14 / Fold change vs veh, ZFP14 / RFU, ACTR2 / Fold change vs veh, ACTR2 / RFU, PPP3R1 / Fold change vs veh, PPP3R1 / RFU, PIK3R1 / Fold change vs veh, PIK3R1 / RFU, HNRNPA1 / Fold change vs veh, HNRNPA1 / RFU, RNF170 / Fold change vs veh, RNF170 / RFU, ZNF28 / Fold change vs veh, ZNF28 / RFU, RNGTT / Fold change vs veh, RNGTT / RFU, OGT / Fold change vs veh, OGT / RFU, BRD1 / Fold change vs veh, BRD1 / RFU, MARS / Fold change vs veh, MARS / RFU, ZNF655 / Fold change vs veh, ZNF655 / RFU, FAHD1 / Fold change vs veh, FAHD1 / RFU, BDP1 / Fold change vs veh, BDP1 / RFU, LRRCC1 / Fold change vs veh, LRRCC1 / RFU, ARID1A / Fold change vs veh, ARID1A / RFU, ZNF146 / Fold change vs veh, ZNF146 / RFU, ZNF330 / Fold change vs veh, ZNF330 / RFU, GPN3 / Fold change vs veh, GPN3 / RFU, C9orf123 / Fold change vs veh, C9orf123 / RFU, N4BP2L2 / Fold change vs veh, N4BP2L2 / RFU, ARFIP1 / Fold change vs veh, ARFIP1 / RFU, FAM179B / Fold change vs veh, FAM179B / RFU, BCL10 / Fold change vs veh, BCL10 / RFU, UHRF1BP1L / Fold change vs veh, UHRF1BP1L / RFU, BET1 / Fold change vs veh, BET1 / RFU, CNOT2 / Fold change vs veh, CNOT2 / RFU, ZNF268 / Fold change vs veh, ZNF268 / Fold change vs veh, ZNF507 / RFU, DGCR2 / Fold change vs veh, DGCR2 / RFU, WDSUB1 / Fold change vs veh, WDSUB1 / Fold change vs veh, HSP90B1 /// MIR3652 / RFU, ADSS / Fold change vs veh, ADSS / RFU, GK / Fold change vs veh, GK / RFU, ZNF148 / Fold change vs veh, ZNF148 / RFU, TAF9 / Fold change vs veh, TAF9 / RFU, SLC1A5 / Fold change vs veh, SLC1A5 / RFU, SLMO2 / Fold change vs veh, SLMO2 / RFU, ABCC4 / Fold change vs veh, ABCC4 / RFU, LOC101060439 /// RAP1B / Fold change vs veh, LOC101060439 /// RAP1B / RFU, RFX7 / Fold change vs veh, RFX7 / RFU, GTPBP10 / Fold change vs veh, GTPBP10 / RFU, CNEP1R1 / Fold change vs veh, CNEP1R1 / RFU, BIVM-ERCC5 /// ERCC5 / Fold change vs veh, BIVM-ERCC5 /// ERCC5 / RFU, ILF3 / Fold change vs veh, ILF3 / RFU 11762660_at / Fold change /veh 11762660_at / RFU VCAN (11757783_s_at) / Fold change /veh VCAN (11757783_s_at) / RFU DDX43 (11728927_at) / Fold change /veh DDX43 (11728927_at) / RFU KRT8 (11758188_x_at) / Fold change /veh KRT8 (11758188_x_at) / RFU NKD1 (11759106_at) / Fold change /veh NKD1 (11759106_at) / RFU SRD5A1 (11742802_a_at) / Fold change /veh SRD5A1 (11742802_a_at) / RFU TPSAB1 /// TPSB2 (11721975_s_at) / Fold change /veh TPSAB1 /// TPSB2 (11721975_s_at) / RFU GSTM3 (11746129_a_at) / Fold change /veh GSTM3 (11746129_a_at) / RFU IL23R (11737362_x_at) / Fold change /veh IL23R (11737362_x_at) / RFU TMEM51 (11727254_a_at) / Fold change /veh TMEM51 (11727254_a_at) / RFU PIWIL2 (11732686_x_at) / Fold change /veh PIWIL2 (11732686_x_at) / RFU ORM1 (11744905_x_at) / Fold change /veh ORM1 (11744905_x_at) / RFU CCDC152 (11743942_at) / Fold change /veh CCDC152 (11743942_at) / RFU ECM1 (11717891_a_at) / Fold change /veh ECM1 (11717891_a_at) / RFU IL23R (11748794_a_at) / Fold change /veh IL23R (11748794_a_at) / RFU TNFAIP8L3 (11732012_x_at) / Fold change /veh TNFAIP8L3 (11732012_x_at) / RFU MBOAT4 (11741988_at) / Fold change /veh MBOAT4 (11741988_at) / RFU 11764193_at / Fold change /veh 11764193_at / RFU TMEM53 (11763286_at) / Fold change /veh TMEM53 (11763286_at) / RFU MAGEB2 (11727129_at) / Fold change /veh MAGEB2 (11727129_at) / RFU TMEM200A (11744735_a_at) / Fold change /veh TMEM200A (11744735_a_at) / RFU CCDC152 (11751479_a_at) / Fold change /veh CCDC152 (11751479_a_at) / RFU FAM211A (11726209_a_at) / Fold change /veh FAM211A (11726209_a_at) / RFU RGS16 (11746705_a_at) / Fold change /veh RGS16 (11746705_a_at) / RFU VCAN (11755009_s_at) / Fold change /veh VCAN (11755009_s_at) / RFU RHOB (11743442_s_at) / Fold change /veh RHOB (11743442_s_at) / RFU RGS16 (11720943_a_at) / Fold change /veh RGS16 (11720943_a_at) / RFU RGS16 (11720944_at) / Fold change /veh RGS16 (11720944_at) / RFU, VPS4B / Fold change vs veh, VPS4B / RFU, CREB1 / Fold change vs veh, CREB1 / RFU, DNAJC13 / Fold change vs veh, DNAJC13 / RFU, GNAQ / Fold change vs veh, GNAQ / RFU, CDK5R1 / Fold change vs veh, CDK5R1 / RFU, ZRANB3 / Fold change vs veh, ZRANB3 / RFU, CUL4A / Fold change vs veh, CUL4A / RFU, CCNY / Fold change vs veh, CCNY / RFU, UFL1 / Fold change vs veh, UFL1 / RFU, COG3 / Fold change vs veh, COG3 / RFU, DIAPH2 / Fold change vs veh, DIAPH2 / RFU, SKA2 / Fold change vs veh, SKA2 / RFU, AFF3 / Fold change vs veh, AFF3 / RFU, LMF1 / Fold change vs veh, LMF1 / RFU, IPO11 / Fold change vs veh, IPO11 / RFU, DFFB / Fold change vs veh, DFFB / RFU, FOXP1 / Fold change vs veh, FOXP1 / RFU, CARD8 / Fold change vs veh, CARD8 / RFU, STRN3 / Fold change vs veh, STRN3 / RFU, ADK / Fold change vs veh, ADK / RFU, RASSF2 / Fold change vs veh, RASSF2 / RFU, WIPF1 / Fold change vs veh, WIPF1 / RFU, LARP1B / Fold change vs veh, LARP1B / RFU, RASA1 / Fold change vs veh, RASA1 / RFU, RB1 / Fold change vs veh, RB1 / RFU, PPFIA1 / Fold change vs veh, PPFIA1 / RFU, MAT2A / Fold change vs veh, MAT2A / RFU, CCT5 / Fold change vs veh, CCT5 / RFU, WDR92 / Fold change vs veh, WDR92 / RFU, CUX1 / Fold change vs veh, CUX1 / RFU, TTC7A / Fold change vs veh, TTC7A / RFU, TMEM135 / Fold change vs veh, TMEM135 / RFU, DEPTOR / Fold change vs veh, DEPTOR / RFU, CPM / Fold change vs veh, CPM / RFU, DNAJB6 / Fold change vs veh, DNAJB6 / RFU, CACNA2D3 / Fold change vs veh, CACNA2D3 / RFU, DTX4 / Fold change vs veh, DTX4 / RFU, TFCP2 / Fold change vs veh, TFCP2 / RFU, GMCL1 /// GMCL1P1 / Fold change vs veh, GMCL1 /// GMCL1P1 / RFU, AEBP2 / Fold change vs veh, AEBP2 / RFU, SNHG1 /// SNORD22 /// SNORD25 /// SNORD26 /// SNORD27 /// SNORD28 /// SNORD29 /// SNORD31 / Fold change vs veh, SNHG1 /// SNORD22 /// SNORD25 /// SNORD26 /// SNORD27 /// SNORD28 /// SNORD29 /// SNORD31 / Fold change (Aza/veh), C12orf56 (ProbeSet 11735607_a_at) / Fold change (ACY-1035/veh), C12orf56 (ProbeSet 11735607_a_at) / Fold change (Aza/veh), FGFR1OP (ProbeSet 11751329_s_at) / Fold change (ACY-1035/veh), FGFR1OP (ProbeSet 11751329_s_at) / Fold change (Aza/veh), VPS36 (ProbeSet 11739960_a_at) / Fold change (ACY-1035/veh), VPS36 (ProbeSet 11739960_a_at) / RFU SYPL1 (11715823_x_at) / Fold change /veh SYPL1 (11715823_x_at) / RFU IGFBP7 (11715501_s_at) / Fold change /veh IGFBP7 (11715501_s_at) / RFU REEP3 (11722064_at) / Fold change /veh REEP3 (11722064_at) / RFU IGLL1 (11728026_x_at) / Fold change /veh IGLL1 (11728026_x_at): dose or concentration left out as unconfirmed
Conditions: ProbeSet 11728676_at; LIST B

Nc1ccc(-c2cccs2)cc1NC(=O)c1ccc2c(c1)cc(C1CC1)n2CCN1CCOCC1 [ACY-1035]
RFU, MED14: 202.11 RFU
